Source: ChEMBL document CHEMBL2074338, “Characterization of organic anion transport inhibitors using cells stably expressing human organic anion transporters” (Eur J Pharmacol, 2001)

target: T1, Organic anion transporter 3 (Homo sapiens, UniProt Q8TCC7); assay: TP_TRANSPORTER: inhibition of E1S uptake in OAT3-expressing S2 cells; type: functional, cell-based
T1 sequence (Q8TCC7 whole entry): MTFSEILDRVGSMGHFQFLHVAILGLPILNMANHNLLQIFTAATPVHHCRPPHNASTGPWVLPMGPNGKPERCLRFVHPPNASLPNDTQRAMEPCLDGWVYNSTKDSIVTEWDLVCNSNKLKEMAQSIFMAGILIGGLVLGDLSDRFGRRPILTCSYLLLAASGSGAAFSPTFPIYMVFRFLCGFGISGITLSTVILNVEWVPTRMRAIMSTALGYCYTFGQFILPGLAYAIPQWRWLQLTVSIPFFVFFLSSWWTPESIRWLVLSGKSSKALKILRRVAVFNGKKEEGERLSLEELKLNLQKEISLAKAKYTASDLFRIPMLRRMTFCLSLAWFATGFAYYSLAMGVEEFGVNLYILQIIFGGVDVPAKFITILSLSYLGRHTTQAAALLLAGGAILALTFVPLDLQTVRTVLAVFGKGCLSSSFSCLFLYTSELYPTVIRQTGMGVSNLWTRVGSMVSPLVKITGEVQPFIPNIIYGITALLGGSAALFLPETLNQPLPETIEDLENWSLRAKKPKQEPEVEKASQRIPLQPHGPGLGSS

Row | Ki | SMILES
1 | 3.7 µM | CCCn1c(=O)c2[nH]c(C34CC5CC(CC3C5)C4)nc2n(CCC)c1=O [ROLOFYLLINE]
2 | 48.3 µM | O=C(O)CCNC(=O)c1ccccc1 [BETAMIPRON]
3 | 231 µM | CC1(C)C[C@@H]1C(=O)N/C(=C\CCCCSC[C@H](N)C(=O)O)C(=O)O [CILASTATIN]
